Data reported in patent publication US11801304B2, “Formulated and/or co-formulated liposome compositions containing TFGB antagonist prodrugs useful in the treatment of cancer and methods thereof” (Nammi Therapeutics, Inc., priority 2020, dated 2023).

Experiment: Solubility in ethanol when preparing stock solution
Format: physicochemical
Conditions: stock solution 20 mg/ml prepared in acetonitrile instead
Description: In another experiment, a liposome comprising the TB4 prodrug (denoted LNP-TB4) was synthesized in the following manner. Briefly, In the first step, a lipid stock solution of POPC (1-palmitoyl-2-oleoyl-glycero-3-phosphocholine), CHOL, and DSPE-PEG, was prepared in ethanol (20 mg/ml) separately. […] The of lipid mixture of POPC, CHOL, TB4+Stearic Acid and DSPE-PEG was mixed together at a molar ratio of 51:29:16.5:3.5, and subsequently diluted with ethanol to get a total lipid concentration of 10 mg/ml. This lipid mixture was heated at 55-60 degree Centigrade using the heating block attachment in the microfluidizer. Similarly, the aqueous phase containing 1 mM PBS buffer was also preheated at 55-60 degree centigrade before passing through the microfluidics cartridge at the flow rate of 5:1 (aqueous:organic phase, lipid mixture). The solvent was removed using dialysis membrane of cut off 12 KDa size (Sigma Aldrich) against DI water for at least 24 hrs. The Dialysis water was changed at least 5 times during the period of 24 hrs. to maximize the removal of the solvent. After the removal of the solvent, the LNP-TB4 was concentrated according to the need using Amicon centrifugal filtration device (cut off size 10 KDa, at 3000 g).
In another experiment, a liposome comprising the TB4 prodrug (denoted LNP-TB4) was co-formulated with ID3 and synthesized in the following manner. […]

solubility in ethanol (in words): not soluble in ethanol
Compound: CCCCCCCCCCCCCCCCCC(=O)OCOC(=O)N(C(=O)c1ccc(-c2cc(-c3c[nH]nc3-c3ccccn3)ccn2)cc1)C1CCOCC1 [TB4 prodrug]
